# Experimental data taken from ChEMBL document CHEMBL1201862, “PubChem BioAssay data set” (2004).
#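 All cell lines were grown in 96-well plates and treated with compound for 48 hours. GI50 is the concentration that inhibits growth by half.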 Active and inactive are the calls of the source. No stated cut-off is given here; in the data, active = GI50 up to about 1.1 µM and inactive = higher.
# Columns and labels:
# Assay in all cases: DTP human tumour cell line panel, 48 h
# [1] = system: SF-295
# [2] = system: SNB-75
# [3] = system: HL-60
# [4] = system: SK-MEL-2
# [5] = system: Hs-578T
# [6] = system: A549
# [7] = system: NCI-H522
# [8] = system: K562
# [9] = system: MDA-N
# [10] = system: HCT-116
# [11] = system: LOX IMVI
# [12] = system: HOP-92
# [13] = system: UACC-257
# [14] = system: SF-268
# [15] = system: Malme-3M
# [16] = system: SK-MEL-28
# [17] = system: BT-549
# [18] = system: MDA-MB-435
# [19] = system: SF-539
# [20] = system: SK-MEL-5
SMILES,GI50 [1],GI50 [2],GI50 [3],GI50 [4],GI50 [5],GI50 [6],GI50 [7],GI50 [8],GI50 [9],GI50 [10],GI50 [11],GI50 [12],GI50 [13],GI50 [14],GI50 [15],GI50 [16],GI50 [17],GI50 [18],GI50 [19],GI50 [20]
CCOC(=O)/C(=C\c1ccccc1)C(=O)CCN1CCOCC1,19.2 µM (inactive),16.4 µM (inactive),1.4 µM (inactive),17.8 µM (inactive),47.1 µM (inactive),22.4 µM (inactive),1.67 µM (inactive),1.57 µM (inactive),6.03 µM (inactive),8.97 µM (inactive),2.8 µM (inactive),5.86 µM (inactive),4.58 µM (inactive),8.17 µM (inactive),2.7 µM (inactive),3.54 µM (inactive),16.7 µM (inactive),19 µM (inactive),7.26 µM (inactive),12.6 µM (inactive)
CCOC(=O)CC/C(=N/Nc1ccc(Cl)cc1[N+](=O)[O-])C(=O)OCC,> 100 µM (inactive),61.8 µM (inactive),> 100 µM (inactive),> 100 µM (inactive),> 100 µM (inactive),> 100 µM (inactive),> 100 µM (inactive),> 100 µM (inactive),> 100 µM (inactive),> 100 µM (inactive),> 100 µM (inactive),11.4 µM (inactive),> 100 µM (inactive),> 100 µM (inactive),> 100 µM (inactive),> 100 µM (inactive),> 100 µM (inactive),> 100 µM (inactive),> 100 µM (inactive),> 100 µM (inactive)
O=C(O)c1ccc(Nc2nc3cc(C(F)(F)F)ccc3n3cccc23)cc1,27.2 µM (inactive),24.1 µM (inactive),18.4 µM (inactive),31.3 µM (inactive),44.4 µM (inactive),30.5 µM (inactive),23.4 µM (inactive),15.3 µM (inactive),54.6 µM (inactive),23.1 µM (inactive),10.2 µM (inactive),64.6 µM (inactive),30.2 µM (inactive),40.6 µM (inactive),84.7 µM (inactive),46.2 µM (inactive),35.7 µM (inactive),34.7 µM (inactive),23.3 µM (inactive),17.1 µM (inactive)
COC(=O)C(CCSC)NC(=O)CSc1nnc(COc2ccc(Cl)cc2)n1-c1ccccc1 (stereo unspecified),17 µM (inactive),16.7 µM (inactive),18.3 µM (inactive),16 µM (inactive),21.4 µM (inactive),26.8 µM (inactive),3.77 µM (inactive),24.5 µM (inactive),18.9 µM (inactive),16.6 µM (inactive),13.8 µM (inactive),18.2 µM (inactive),16.9 µM (inactive),17.1 µM (inactive),21.3 µM (inactive),17.4 µM (inactive),19.6 µM (inactive),18.4 µM (inactive),18.4 µM (inactive),18.5 µM (inactive)
CC/C(N)=N\NC(=O)OC(C)(C)C,> 100 µM (inactive),> 100 µM (inactive),> 100 µM (inactive),> 100 µM (inactive),> 100 µM (inactive),> 100 µM (inactive),> 100 µM (inactive),> 100 µM (inactive),> 100 µM (inactive),> 100 µM (inactive),> 100 µM (inactive),> 100 µM (inactive),> 100 µM (inactive),> 100 µM (inactive),> 100 µM (inactive),> 100 µM (inactive),> 100 µM (inactive),> 100 µM (inactive),> 100 µM (inactive),> 100 µM (inactive)
COc1cc(OC)c2c(=O)cc(-c3ccccc3F)[nH]c2c1,34.3 µM (inactive),33.9 µM (inactive),> 100 µM (inactive),> 100 µM (inactive),> 100 µM (inactive),38.5 µM (inactive),27 µM (inactive),53.3 µM (inactive),25.8 µM (inactive),38.3 µM (inactive),61.1 µM (inactive),> 100 µM (inactive),> 100 µM (inactive),39.2 µM (inactive),> 100 µM (inactive),> 100 µM (inactive),> 100 µM (inactive),8.38 µM (inactive),,30.3 µM (inactive)
COc1cc(C2c3cc4c(cc3OC(NNc3ccccc3)C2C)OCO4)cc(OC)c1OC (stereo unspecified),0.361 µM (active),8.3 µM (inactive),1.58 µM (inactive),1.23 µM (inactive),2.96 µM (inactive),1.6 µM (inactive),0.977 µM (active),0.437 µM (active),0.255 µM (active),1.03 µM (active),0.706 µM (active),6.43 µM (inactive),2.07 µM (inactive),1.86 µM (inactive),0.935 µM (active),1.57 µM (inactive),1.01 µM (active),0.305 µM (active),0.571 µM (active),1.32 µM (inactive)
COc1cc2c(c(O)c1OC)C(=O)C1CCC(=O)N1C2c1cccc2ccccc12 (stereo unspecified),43.2 µM (inactive),> 100 µM (inactive),20.6 µM (inactive),50.7 µM (inactive),82.6 µM (inactive),28.8 µM (inactive),23.7 µM (inactive),18.9 µM (inactive),40.8 µM (inactive),50.5 µM (inactive),,19.3 µM (inactive),30.1 µM (inactive),57.8 µM (inactive),81.8 µM (inactive),73.6 µM (inactive),45 µM (inactive),44.5 µM (inactive),41.5 µM (inactive),31.6 µM (inactive)
CC(=O)NC(=N/N=C1/C(=O)Nc2ccc(C)cc21)NC(C)=O,52.1 µM (inactive),31.6 µM (inactive),> 100 µM (inactive),> 100 µM (inactive),> 100 µM (inactive),> 100 µM (inactive),> 100 µM (inactive),> 100 µM (inactive),> 100 µM (inactive),> 100 µM (inactive),> 100 µM (inactive),> 100 µM (inactive),> 100 µM (inactive),> 100 µM (inactive),> 100 µM (inactive),> 100 µM (inactive),> 100 µM (inactive),> 100 µM (inactive),,> 100 µM (inactive)
Cc1cc(=O)oc2cc3oc(N(C)c4ccccc4)nc(=O)c3cc12,> 100 µM (inactive),> 100 µM (inactive),> 100 µM (inactive),> 100 µM (inactive),46.7 µM (inactive),> 100 µM (inactive),58.9 µM (inactive),> 100 µM (inactive),> 100 µM (inactive),> 100 µM (inactive),> 100 µM (inactive),22.7 µM (inactive),> 100 µM (inactive),40.9 µM (inactive),> 100 µM (inactive),> 100 µM (inactive),50.2 µM (inactive),> 100 µM (inactive),> 100 µM (inactive),> 100 µM (inactive)
CCN(CC)CCNc1ccc2ncn3c4ccc(OC)cc4c(=O)c1c23,2.28 µM (inactive),7.08 µM (inactive),3.49 µM (inactive),9.25 µM (inactive),11.1 µM (inactive),2.91 µM (inactive),2.32 µM (inactive),2.75 µM (inactive),5.18 µM (inactive),0.592 µM (active),1.51 µM (inactive),4.75 µM (inactive),11.9 µM (inactive),2.21 µM (inactive),9.12 µM (inactive),14.3 µM (inactive),16.3 µM (inactive),5.21 µM (inactive),4.24 µM (inactive),6.07 µM (inactive)
CCOc1cc(/C=N/c2ccc(Oc3ccc(Cl)cc3)c(Cl)c2)ccc1O,18.7 µM (inactive),17.8 µM (inactive),15.3 µM (inactive),24.5 µM (inactive),18.8 µM (inactive),30.1 µM (inactive),13.7 µM (inactive),,25 µM (inactive),17.9 µM (inactive),19.8 µM (inactive),19.7 µM (inactive),27.1 µM (inactive),15.7 µM (inactive),23.3 µM (inactive),25.2 µM (inactive),17.8 µM (inactive),35.3 µM (inactive),22.8 µM (inactive),22.3 µM (inactive)
O=C1CC(O)c2c(Br)sc(Br)c21 (stereo unspecified),17.1 µM (inactive),16 µM (inactive),3.2 µM (inactive),14 µM (inactive),25.6 µM (inactive),19.3 µM (inactive),8.28 µM (inactive),2.8 µM (inactive),8.81 µM (inactive),12.4 µM (inactive),4.48 µM (inactive),17.9 µM (inactive),3.85 µM (inactive),18.1 µM (inactive),17.1 µM (inactive),15.7 µM (inactive),29.7 µM (inactive),5.58 µM (inactive),6.5 µM (inactive),17.7 µM (inactive)
COc1ccc(C2c3cc4c(cc3OC3(OC)COC(=O)C23)OCO4)c(OC)c1 (stereo unspecified),12.8 µM (inactive),8.93 µM (inactive),2.32 µM (inactive),12.6 µM (inactive),3.78 µM (inactive),10.1 µM (inactive),2.43 µM (inactive),5.08 µM (inactive),1.77 µM (inactive),5.33 µM (inactive),6.95 µM (inactive),26.5 µM (inactive),6.24 µM (inactive),14.6 µM (inactive),8.63 µM (inactive),18.4 µM (inactive),6.56 µM (inactive),1.71 µM (inactive),4.62 µM (inactive),4.84 µM (inactive)
